Measured values as given in ChEMBL document CHEMBL1629479, “Old phenothiazine and dibenzothiadiazepine derivatives for tomorrow's neuroprotective therapies against neurodegenerative diseases” (Eur J Med Chem, 2010).

Key:
[1] = Permeability of the compound by PAMPA at pH 7.4; type: ADME; settings: read-out: permeability
SH-SY5Y [2] = assay: Neuroprotective activity against rotenone and oligomycin-induced mitochondrial oxidative stress in human SH-SY5Y cells assessed as LDH release at 3 uM after 24 hrs using DCFH-DA fluorescent dye; type: functional
SH-SY5Y [3] = assay: Neuroprotective activity against rotenone and oligomycin-induced mitochondrial oxidative stress in human SH-SY5Y cells assessed as LDH release at 30 uM after 24 hrs using DCFH-DA fluorescent dye; type: functional
Cholinesterase = Cholinesterase (Equus caballus, UniProt P81908); assay: Inhibition of equine serum BuChE by Ellman's method
Acetylcholinesterase = target: T1, Acetylcholinesterase (Bos taurus, UniProt P23795)
T1 sequence (P23795 whole entry): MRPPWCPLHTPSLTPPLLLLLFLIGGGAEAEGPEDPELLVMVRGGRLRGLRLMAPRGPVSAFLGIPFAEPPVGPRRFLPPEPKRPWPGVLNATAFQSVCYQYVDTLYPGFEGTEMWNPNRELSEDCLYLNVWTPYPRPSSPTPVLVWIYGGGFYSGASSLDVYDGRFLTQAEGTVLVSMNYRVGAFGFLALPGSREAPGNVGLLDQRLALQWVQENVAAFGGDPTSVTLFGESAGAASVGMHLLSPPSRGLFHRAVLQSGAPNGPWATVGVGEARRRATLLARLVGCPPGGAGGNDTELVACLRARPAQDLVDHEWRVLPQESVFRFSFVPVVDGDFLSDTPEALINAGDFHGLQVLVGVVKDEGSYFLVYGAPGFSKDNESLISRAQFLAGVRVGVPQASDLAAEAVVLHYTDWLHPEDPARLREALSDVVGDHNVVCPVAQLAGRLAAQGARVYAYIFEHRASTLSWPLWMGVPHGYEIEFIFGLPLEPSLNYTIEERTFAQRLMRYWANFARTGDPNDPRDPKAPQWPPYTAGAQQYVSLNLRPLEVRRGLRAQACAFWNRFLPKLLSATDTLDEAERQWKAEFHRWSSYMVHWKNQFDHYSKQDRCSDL
Description: Inhibition of bovine erythrocyte AChE by Ellman's method

SH-SY5Y [4] = assay: Neuroprotective activity against H2O2-induced oxidative stress in human SH-SY5Y cells assessed as LDH release at 30 uM after 24 hrs by UV-vis spectroscopy; type: functional
SH-SY5Y [5] = assay: Neuroprotective activity against H2O2-induced oxidative stress in human SH-SY5Y cells assessed as LDH release at 1 uM after 24 hrs by UV-vis spectroscopy; type: functional
SH-SY5Y [6] = assay: Neuroprotective activity against rotenone and oligomycin-induced mitochondrial oxidative stress in human SH-SY5Y cells assessed as LDH release at 10 uM after 24 hrs using DCFH-DA fluorescent dye; type: functional
SH-SY5Y [7] = assay: Neuroprotective activity against H2O2-induced oxidative stress in human SH-SY5Y cells assessed as LDH release at 100 uM after 24 hrs by UV-vis spectroscopy; type: functional
SH-SY5Y [8] = assay: Neuroprotective activity against H2O2-induced oxidative stress in human SH-SY5Y cells assessed as LDH release at 30 uM after 24 hrs by UV-vis spectroscopy in presence of calcium channel blocker nimodipine; type: functional
SH-SY5Y [9] = assay: Neuroprotective activity against H2O2-induced oxidative stress in human SH-SY5Y cells assessed as LDH release at 60 uM after 24 hrs by UV-vis spectroscopy; type: functional
SH-SY5Y [10] = assay: Cytotoxicity against human SH-SY5Y cells assessed as LDH release at 100 uM after 24 hrs by UV-vis spectroscopy; type: cell-based
SH-SY5Y [11] = assay: Neuroprotective activity against H2O2-induced oxidative stress in human SH-SY5Y cells assessed as LDH release at 3 uM after 24 hrs by UV-vis spectroscopy; type: functional
SH-SY5Y [12] = assay: Neuroprotective activity against H2O2-induced oxidative stress in human SH-SY5Y cells assessed as LDH release at 100 uM after 24 hrs by UV-vis spectroscopy in presence of calcium channel blocker nimodipine; type: functional

Chain of Cholinesterase (P81908 whole entry): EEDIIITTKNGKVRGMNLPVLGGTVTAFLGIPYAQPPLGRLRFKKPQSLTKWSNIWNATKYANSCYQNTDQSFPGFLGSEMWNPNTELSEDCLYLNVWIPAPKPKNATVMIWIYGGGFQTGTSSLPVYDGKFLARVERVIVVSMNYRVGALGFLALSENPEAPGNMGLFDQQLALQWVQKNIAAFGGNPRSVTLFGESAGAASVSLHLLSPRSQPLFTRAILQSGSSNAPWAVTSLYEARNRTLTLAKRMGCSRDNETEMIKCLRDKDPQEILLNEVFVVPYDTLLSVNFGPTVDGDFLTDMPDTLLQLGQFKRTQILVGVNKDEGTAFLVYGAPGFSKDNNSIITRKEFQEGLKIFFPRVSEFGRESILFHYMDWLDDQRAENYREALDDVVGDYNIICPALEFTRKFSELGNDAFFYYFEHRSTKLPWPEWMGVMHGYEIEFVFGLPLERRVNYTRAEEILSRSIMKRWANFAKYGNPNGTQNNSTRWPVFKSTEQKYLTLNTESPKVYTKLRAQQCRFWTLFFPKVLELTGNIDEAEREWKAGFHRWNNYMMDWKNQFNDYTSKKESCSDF

Structure (SMILES)	Papp [1] [×10⁻⁶ cm/s]	Activity (SH-SY5Y [2]) [%]	Activity (SH-SY5Y [3]) [%]	IC50 (Cholinesterase) [µM]	IC50 (Acetylcholinesterase) [µM]	Activity (SH-SY5Y [4]) [%]	Activity (SH-SY5Y [5]) [%]	Activity (SH-SY5Y [6]) [%]	Activity (SH-SY5Y [7]) [%]	Activity (SH-SY5Y [8]) [%]	Activity (SH-SY5Y [9]) [%]	Activity (SH-SY5Y [10])	Activity (SH-SY5Y [11]) [%]	Activity (SH-SY5Y [12]) [%]
CN(C)CCC(=O)NN1c2ccccc2Sc2cc(Cl)ccc21	8.8	21.4	52.9	0.7	> 100	44.4	0	18.9	20.1	6.5	18.6	Non-toxic	8.4	–
CN1CCN(CC(=O)NN2c3ccccc3Sc3cc(Cl)ccc32)CC1	–	–	–	0.5	> 100	37.9	12.5	–	18.8	–	18.4	Non-toxic	17.1	–
CC(=O)NN1c2ccccc2Sc2ccc(Cl)cc21	–	–	–	> 100	> 100	0	0	–	0	–	0	Non-toxic	0	–
NN1c2ccccc2Sc2ccccc21	–	–	–	> 100	> 100	0	0	–	0	–	0	Non-toxic	6.7	–
CC(=O)n1c2ccccc2sc2cccc(Cl)c2n1C(C)=O	7.7	48.5	38.9	> 100	> 100	11.4	0	43.4	41	–	13.2	Non-toxic	6.4	0
CN1CCN(NCCN2c3ccccc3Sc3ccccc32)CC1.Cl.Cl	9.1	19.4	22.6	50	> 100	22.1	14.1	22.5	42.1	–	36.9	Non-toxic	8.3	16.4
Cc1c(C)c2c(c(C)c1O)CCC(C)(C(=O)O)O2 (configuration not stated) [TROLOX]	–	52.9	39.3	–	–	57.7	0	43.2	64.2	–	55.7	–	0	60.3
